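Compound exposure: 48 hours, 5 concentrations, 96-well plates. GI50 marks 50% less growth.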 Calls of active or inactive are those of the source. Rule as the data show it: active = GI50 up to about 1.1 µM and inactive = higher.
Legend:
Assay in all cases: DTP human tumour cell line panel, 48 h
NCI-H23 = tested on: NCI-H23
HCT-15 = tested on: HCT-15
MDA-MB-231 = tested on: MDA-MB-231
HOP-62 = tested on: HOP-62
SK-MEL-2 = tested on: SK-MEL-2
COLO 205 = tested on: COLO 205
HCT-116 = tested on: HCT-116
SR = tested on: SR
K562 = tested on: K562
CAKI-1 = tested on: CAKI-1
HT-29 = tested on: HT-29
CCRF-CEM = tested on: CCRF-CEM
HL-60 = tested on: HL-60
UACC-257 = tested on: UACC-257
OVCAR-4 = tested on: OVCAR-4
EKVX = tested on: EKVX
HCC 2998 = tested on: HCC 2998
SF-539 = tested on: SF-539
A549 = tested on: A549
SNB-75 = tested on: SNB-75

Structure (SMILES) | GI50 (NCI-H23) | GI50 (HCT-15) [µM] | GI50 (MDA-MB-231) | GI50 (HOP-62) | GI50 (SK-MEL-2) | GI50 (COLO 205) | GI50 (HCT-116) | GI50 (SR) | GI50 (K562) | GI50 (CAKI-1) | GI50 (HT-29) | GI50 (CCRF-CEM) | GI50 (HL-60) | GI50 (UACC-257) | GI50 (OVCAR-4) | GI50 (EKVX) | GI50 (HCC 2998) | GI50 (SF-539) | GI50 (A549) | GI50 (SNB-75)
CCOC(=O)Nc1sc2c(c1C#N)CCCC2 | > 100 µM (inactive) | 79.4 | 71.3 µM (inactive) | > 100 µM (inactive) | > 100 µM (inactive) | > 100 µM (inactive) | 74.1 µM (inactive) | 75 µM (inactive) | 33.1 µM (inactive) | > 100 µM (inactive) | > 100 µM (inactive) | 64.9 µM (inactive) | 45.3 µM (inactive) | > 100 µM (inactive) | > 100 µM (inactive) | 25.9 µM (inactive) | > 100 µM (inactive) | – | – | –
Cc1ccc2c(c1)S(=O)(=O)c1ccc3ccccc3c1N2 | > 100 µM (inactive) | > 100 | > 100 µM (inactive) | > 100 µM (inactive) | > 100 µM (inactive) | > 100 µM (inactive) | > 100 µM (inactive) | 15.4 µM (inactive) | > 100 µM (inactive) | > 100 µM (inactive) | > 100 µM (inactive) | > 100 µM (inactive) | > 100 µM (inactive) | > 100 µM (inactive) | > 100 µM (inactive) | > 100 µM (inactive) | > 100 µM (inactive) | > 100 µM (inactive) | > 100 µM (inactive) | –
O=C1COc2ccc([N+](=O)[O-])cc2C(=O)C1 | > 10 µM (inactive) | > 10 | > 10 µM (inactive) | > 10 µM (inactive) | > 10 µM (inactive) | > 10 µM (inactive) | > 10 µM (inactive) | > 10 µM (inactive) | > 10 µM (inactive) | > 10 µM (inactive) | > 10 µM (inactive) | > 10 µM (inactive) | > 10 µM (inactive) | > 10 µM (inactive) | > 10 µM (inactive) | > 10 µM (inactive) | > 10 µM (inactive) | > 10 µM (inactive) | > 10 µM (inactive) | –
CC1=CC2C3(C)C(C)(C(C)=CP3(=O)c3c(C(C)C)cc(C(C)C)cc3C(C)C)C1P2(=O)c1c(C(C)C)cc(C(C)C)cc1C(C)C (stereo unspecified) | 1.6 µM (inactive) | 1.95 | 1.77 µM (inactive) | 2.41 µM (inactive) | 1.72 µM (inactive) | 1.6 µM (inactive) | 1.75 µM (inactive) | 1.34 µM (inactive) | 1.91 µM (inactive) | 3.01 µM (inactive) | 2.11 µM (inactive) | 2.04 µM (inactive) | 1.09 µM (active) | 1.7 µM (inactive) | 3.25 µM (inactive) | 2.92 µM (inactive) | 1.9 µM (inactive) | – | 2.42 µM (inactive) | 3.05 µM (inactive)
O=C(O)C1C(C(=O)O)C23CC2(C(=O)O)C2(C(=O)O)CCC3=C3CCCC312 (stereo unspecified) | 7.96 µM (inactive) | 15.1 | 12.1 µM (inactive) | 4.44 µM (inactive) | 14 µM (inactive) | 3.81 µM (inactive) | 6.85 µM (inactive) | 2.24 µM (inactive) | 12.7 µM (inactive) | 20.2 µM (inactive) | 7.45 µM (inactive) | – | 3.44 µM (inactive) | 3.39 µM (inactive) | 16 µM (inactive) | 11.6 µM (inactive) | – | 4.67 µM (inactive) | 6.34 µM (inactive) | 11.2 µM (inactive)
COC(=O)c1c(O)ccc2c1c1c(n2CCc2ccc(OC)c(OC)c2)C(=O)c2ccccc2C1=O | 15.6 µM (inactive) | 12.7 | 22.4 µM (inactive) | 16 µM (inactive) | 16.4 µM (inactive) | 3.57 µM (inactive) | 12.7 µM (inactive) | 14.8 µM (inactive) | 20.5 µM (inactive) | 17.5 µM (inactive) | 3.13 µM (inactive) | 9.79 µM (inactive) | 23.4 µM (inactive) | 16.6 µM (inactive) | 13.7 µM (inactive) | 20.5 µM (inactive) | 4.29 µM (inactive) | 14.4 µM (inactive) | 14.5 µM (inactive) | –
O=C(N/N=C1\CCc2ccccc2C1)N/N=C1\CCc2ccccc2C1 | > 10 µM (inactive) | > 10 | > 10 µM (inactive) | > 10 µM (inactive) | > 10 µM (inactive) | > 10 µM (inactive) | > 10 µM (inactive) | > 10 µM (inactive) | > 10 µM (inactive) | > 10 µM (inactive) | > 10 µM (inactive) | > 10 µM (inactive) | > 10 µM (inactive) | > 10 µM (inactive) | > 10 µM (inactive) | > 10 µM (inactive) | > 10 µM (inactive) | – | > 10 µM (inactive) | –
C=CCC1C(O[Si](C)(C)C(C)(C)C)C(CO[Si](C)(C)C(C)(C)C)OC1n1ccc(=O)[nH]c1=O (stereo unspecified) | 1.29 µM (inactive) | 1.15 | 1.79 µM (inactive) | 1.98 µM (inactive) | 2.14 µM (inactive) | 1.63 µM (inactive) | 1.06 µM (active) | 2.07 µM (inactive) | 1.22 µM (inactive) | 1.63 µM (inactive) | 1.44 µM (inactive) | 0.548 µM (active) | – | 1.68 µM (inactive) | 1.15 µM (inactive) | 1.41 µM (inactive) | 1.63 µM (inactive) | 1.6 µM (inactive) | 1.38 µM (inactive) | 1.24 µM (inactive)
Cc1nc(Cl)c(CBr)c(Cl)n1 | 1.62 µM (inactive) | 1.61 | 1.95 µM (inactive) | 1.91 µM (inactive) | 1.87 µM (inactive) | 1.66 µM (inactive) | 0.285 µM (active) | 0.0813 µM (active) | 0.21 µM (active) | 2.28 µM (inactive) | 0.728 µM (active) | 0.152 µM (active) | – | 0.832 µM (active) | 1.83 µM (inactive) | 5.87 µM (inactive) | 3.64 µM (inactive) | 1.97 µM (inactive) | 6.3 µM (inactive) | 1 µM (active)
O=c1cc(-c2ccccc2)oc2cc(Oc3nnnn3-c3ccccc3)ccc12 | 51.6 µM (inactive) | 29 | 42.6 µM (inactive) | 93.8 µM (inactive) | 28.4 µM (inactive) | 35.1 µM (inactive) | 34.6 µM (inactive) | 44.9 µM (inactive) | 32.6 µM (inactive) | 6.14 µM (inactive) | 57.7 µM (inactive) | 69.2 µM (inactive) | 30.5 µM (inactive) | 32.5 µM (inactive) | 19.9 µM (inactive) | 35.8 µM (inactive) | > 100 µM (inactive) | 22.4 µM (inactive) | 31.6 µM (inactive) | –
COc1cc(O)c2c(c1)OCC1(Cc3cc(OC)c(OC)cc31)C2=O (stereo unspecified) | 72.9 µM (inactive) | > 100 | 83 µM (inactive) | > 100 µM (inactive) | > 100 µM (inactive) | 90.2 µM (inactive) | 86.1 µM (inactive) | 68.7 µM (inactive) | 36.9 µM (inactive) | 52 µM (inactive) | > 100 µM (inactive) | > 100 µM (inactive) | > 100 µM (inactive) | 43.1 µM (inactive) | 40 µM (inactive) | – | – | > 100 µM (inactive) | 19.5 µM (inactive) | 78.3 µM (inactive)
CC1(C)CO[P@@](=S)(c2ccccn2)O[C@@H]1c1ccccc1 | 89.3 µM (inactive) | 94.4 | > 100 µM (inactive) | > 100 µM (inactive) | – | > 100 µM (inactive) | 93.3 µM (inactive) | 39.4 µM (inactive) | 57 µM (inactive) | > 100 µM (inactive) | > 100 µM (inactive) | 64.4 µM (inactive) | > 100 µM (inactive) | > 100 µM (inactive) | 73.6 µM (inactive) | 96.8 µM (inactive) | > 100 µM (inactive) | – | > 100 µM (inactive) | > 100 µM (inactive)
COc1cccc(C2c3cc4c(cc3OC(N3CCCCC3)C2C)OCO4)c1OC (stereo unspecified) | 14.3 µM (inactive) | 3.37 | 14.3 µM (inactive) | 17.9 µM (inactive) | 5.96 µM (inactive) | 7.64 µM (inactive) | 2.72 µM (inactive) | 1.24 µM (inactive) | 3.63 µM (inactive) | 2.58 µM (inactive) | 4.58 µM (inactive) | 3.46 µM (inactive) | – | 5.94 µM (inactive) | – | 13.7 µM (inactive) | 15.3 µM (inactive) | 12.6 µM (inactive) | 5.14 µM (inactive) | 5.52 µM (inactive)
NC(=O)CC(N)C(N)=O (stereo unspecified) | > 100 µM (inactive) | > 100 | > 100 µM (inactive) | > 100 µM (inactive) | > 100 µM (inactive) | > 100 µM (inactive) | > 100 µM (inactive) | > 100 µM (inactive) | > 100 µM (inactive) | > 100 µM (inactive) | – | > 100 µM (inactive) | > 100 µM (inactive) | > 100 µM (inactive) | > 100 µM (inactive) | – | – | > 100 µM (inactive) | > 100 µM (inactive) | > 100 µM (inactive)
COc1cc2c(cc1OC)C(CCN)=NCC2 | 13.1 µM (inactive) | 19.6 | 16.6 µM (inactive) | 21.1 µM (inactive) | 17.4 µM (inactive) | 14.3 µM (inactive) | 18.4 µM (inactive) | 4.58 µM (inactive) | 11.2 µM (inactive) | 12.6 µM (inactive) | 20.2 µM (inactive) | 2.19 µM (inactive) | 0.839 µM (active) | 17.9 µM (inactive) | 21.2 µM (inactive) | 23.1 µM (inactive) | – | 6.75 µM (inactive) | 31.6 µM (inactive) | 18.5 µM (inactive)

— ChEMBL document CHEMBL1201862, “PubChem BioAssay data set” (2004)
